Reference: US11484561B2, “Morus extracts rich in N-acids of imino sugars and or pipecolic acids” (Phynova Limited, priority 2011, dated 2022)

Legend:
[1] = test system: N-acetyl-β-D-gluc (Jack bean); design: key: NI = no inhibition; settings: typical DNJ inhibitory activity shown for reference, in words; cited from earlier work
glycogen phosphorylase = test: Glycogen phosphorylase assay; assay type: biochemical; settings: words, no concentration
[2] = test system: α-D-glucosidase (Bacillus); settings: typical DNJ inhibitory activity shown for reference, in words; cited from earlier work
[3] = test system: β-D-mannosidase Cellulomonas fimi; design: key: NI = no inhibition; settings: typical DNJ inhibitory activity shown for reference, in words; cited from earlier work
α-D-glucosidase (rice) = molecular target: T1, α-D-glucosidase (rice) (Oryza sativa subsp. japonica, UniProt Q653V7); settings: typical DNJ inhibitory activity shown for reference, in words; cited from earlier work
T1 construct: purchased Sigma-Aldrich

[4] = molecular target: T2, α-D-mannosidase (Jack bean) (Canavalia ensiformis, UniProt C0HJB3); settings: typical DNJ inhibitory activity shown for reference, in words; cited from earlier work
T2 construct: purchased Sigma-Aldrich
T2 sequence (C0HJB3 1-562 limits assumed): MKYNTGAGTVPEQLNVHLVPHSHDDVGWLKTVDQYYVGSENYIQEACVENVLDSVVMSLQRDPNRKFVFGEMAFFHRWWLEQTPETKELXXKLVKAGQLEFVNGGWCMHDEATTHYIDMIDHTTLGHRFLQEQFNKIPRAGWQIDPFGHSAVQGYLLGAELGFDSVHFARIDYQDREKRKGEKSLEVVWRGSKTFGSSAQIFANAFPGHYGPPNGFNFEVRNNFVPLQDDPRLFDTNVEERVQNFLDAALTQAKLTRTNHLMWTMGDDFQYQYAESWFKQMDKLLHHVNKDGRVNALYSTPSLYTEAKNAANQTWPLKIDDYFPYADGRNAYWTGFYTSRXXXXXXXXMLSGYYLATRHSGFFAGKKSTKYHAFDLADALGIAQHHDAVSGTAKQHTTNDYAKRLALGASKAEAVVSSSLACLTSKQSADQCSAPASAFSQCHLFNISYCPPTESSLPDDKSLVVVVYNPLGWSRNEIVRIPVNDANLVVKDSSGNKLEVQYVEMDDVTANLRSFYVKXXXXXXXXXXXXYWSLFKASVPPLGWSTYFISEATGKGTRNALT

[5] = molecular target: T3, β-D-galactosidase (bovine) (Bos taurus, UniProt Q58D55); design: key: NI = no inhibition; settings: typical DNJ inhibitory activity shown for reference, in words; cited from earlier work
T3 construct: purchased Sigma-Aldrich
T3 sequence (Q58D55 28-653): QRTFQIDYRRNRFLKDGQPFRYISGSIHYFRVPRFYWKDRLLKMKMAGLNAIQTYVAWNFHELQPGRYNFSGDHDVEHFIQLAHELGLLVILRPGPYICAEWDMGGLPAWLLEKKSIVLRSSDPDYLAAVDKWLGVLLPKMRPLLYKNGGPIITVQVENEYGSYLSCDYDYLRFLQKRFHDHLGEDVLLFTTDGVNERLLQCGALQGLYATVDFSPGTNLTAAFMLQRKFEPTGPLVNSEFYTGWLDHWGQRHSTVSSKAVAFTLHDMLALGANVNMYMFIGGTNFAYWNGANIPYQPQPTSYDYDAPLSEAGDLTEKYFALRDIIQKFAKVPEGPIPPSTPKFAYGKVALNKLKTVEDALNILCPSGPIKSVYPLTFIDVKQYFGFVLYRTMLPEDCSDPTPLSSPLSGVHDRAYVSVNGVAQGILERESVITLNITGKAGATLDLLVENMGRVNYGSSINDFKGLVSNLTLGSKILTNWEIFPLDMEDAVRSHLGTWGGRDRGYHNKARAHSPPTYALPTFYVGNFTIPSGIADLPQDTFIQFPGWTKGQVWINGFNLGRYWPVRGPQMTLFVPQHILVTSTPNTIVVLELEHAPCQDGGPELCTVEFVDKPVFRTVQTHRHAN

[6] = molecular target: T4, β-glucuronidase (bovine liver) (Bos taurus, UniProt A3KMY8); design: key: NI = no inhibition; settings: typical DNJ inhibitory activity shown for reference, in words; cited from earlier work
T4 construct: purchased Sigma-Aldrich; host or cells: bovine liver
T4 sequence (A3KMY8 1-652): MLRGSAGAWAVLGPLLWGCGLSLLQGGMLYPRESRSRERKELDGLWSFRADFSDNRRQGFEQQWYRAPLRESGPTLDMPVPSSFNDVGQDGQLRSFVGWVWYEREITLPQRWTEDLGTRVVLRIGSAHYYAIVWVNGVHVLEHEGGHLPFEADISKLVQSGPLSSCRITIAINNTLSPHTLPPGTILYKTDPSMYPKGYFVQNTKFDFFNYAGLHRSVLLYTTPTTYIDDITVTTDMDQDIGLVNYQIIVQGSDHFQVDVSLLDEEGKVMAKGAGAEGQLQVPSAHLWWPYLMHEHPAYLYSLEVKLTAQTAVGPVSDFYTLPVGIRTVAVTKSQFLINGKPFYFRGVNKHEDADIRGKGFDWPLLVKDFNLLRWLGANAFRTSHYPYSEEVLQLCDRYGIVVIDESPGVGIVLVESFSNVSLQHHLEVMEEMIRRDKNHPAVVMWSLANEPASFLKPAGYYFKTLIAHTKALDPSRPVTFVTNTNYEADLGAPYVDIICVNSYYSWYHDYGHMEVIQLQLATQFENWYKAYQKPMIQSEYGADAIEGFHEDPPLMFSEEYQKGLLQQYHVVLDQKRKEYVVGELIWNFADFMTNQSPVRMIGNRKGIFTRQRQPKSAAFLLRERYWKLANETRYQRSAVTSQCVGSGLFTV

α-D-glucosidase (Yeast) = molecular target: T5, α-D-glucosidase (Yeast) (Saccharomyces cerevisiae, UniProt P53341); settings: typical DNJ inhibitory activity shown for reference, in words; cited from earlier work
T5 construct: purchased Sigma-Aldrich

[7] = molecular target: T6, amyloglucosidase (A. niger) (Aspergillus niger, UniProt P69328); design: key: NI = no inhibition; settings: typical DNJ inhibitory activity shown for reference, in words; cited from earlier work
T6 construct: purchased Sigma-Aldrich

β-D-glucosidase (almond) = settings: typical DNJ inhibitory activity shown for reference, in words; cited from earlier work
[8] = test system: N-acetyl-β-D-gluc (Bovine kidney); design: key: NI = no inhibition; settings: typical DNJ inhibitory activity shown for reference, in words; cited from earlier work

T1 sequence (Q653V7 34-885): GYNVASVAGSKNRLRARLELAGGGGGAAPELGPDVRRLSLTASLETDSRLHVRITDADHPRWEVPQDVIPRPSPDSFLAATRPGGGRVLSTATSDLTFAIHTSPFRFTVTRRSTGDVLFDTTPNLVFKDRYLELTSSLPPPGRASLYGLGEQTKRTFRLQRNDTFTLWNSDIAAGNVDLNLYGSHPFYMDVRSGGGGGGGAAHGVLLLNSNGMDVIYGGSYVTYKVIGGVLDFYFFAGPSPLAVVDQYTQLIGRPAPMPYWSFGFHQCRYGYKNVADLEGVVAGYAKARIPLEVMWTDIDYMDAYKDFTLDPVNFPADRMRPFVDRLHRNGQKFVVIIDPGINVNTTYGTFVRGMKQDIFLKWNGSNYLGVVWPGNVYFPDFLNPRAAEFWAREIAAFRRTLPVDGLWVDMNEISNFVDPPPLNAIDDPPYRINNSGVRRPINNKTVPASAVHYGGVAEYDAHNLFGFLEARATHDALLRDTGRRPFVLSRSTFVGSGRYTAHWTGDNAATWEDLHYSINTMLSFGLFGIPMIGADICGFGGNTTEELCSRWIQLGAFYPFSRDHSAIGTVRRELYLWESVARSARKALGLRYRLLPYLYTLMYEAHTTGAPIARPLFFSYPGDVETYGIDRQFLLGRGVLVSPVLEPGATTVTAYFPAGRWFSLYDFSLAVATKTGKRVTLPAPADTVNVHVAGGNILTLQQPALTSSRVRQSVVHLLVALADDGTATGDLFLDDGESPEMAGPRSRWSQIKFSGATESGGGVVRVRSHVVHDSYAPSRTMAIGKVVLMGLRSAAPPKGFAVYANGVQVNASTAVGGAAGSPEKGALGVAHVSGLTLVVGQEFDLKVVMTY
T6 sequence (P69328 25-640): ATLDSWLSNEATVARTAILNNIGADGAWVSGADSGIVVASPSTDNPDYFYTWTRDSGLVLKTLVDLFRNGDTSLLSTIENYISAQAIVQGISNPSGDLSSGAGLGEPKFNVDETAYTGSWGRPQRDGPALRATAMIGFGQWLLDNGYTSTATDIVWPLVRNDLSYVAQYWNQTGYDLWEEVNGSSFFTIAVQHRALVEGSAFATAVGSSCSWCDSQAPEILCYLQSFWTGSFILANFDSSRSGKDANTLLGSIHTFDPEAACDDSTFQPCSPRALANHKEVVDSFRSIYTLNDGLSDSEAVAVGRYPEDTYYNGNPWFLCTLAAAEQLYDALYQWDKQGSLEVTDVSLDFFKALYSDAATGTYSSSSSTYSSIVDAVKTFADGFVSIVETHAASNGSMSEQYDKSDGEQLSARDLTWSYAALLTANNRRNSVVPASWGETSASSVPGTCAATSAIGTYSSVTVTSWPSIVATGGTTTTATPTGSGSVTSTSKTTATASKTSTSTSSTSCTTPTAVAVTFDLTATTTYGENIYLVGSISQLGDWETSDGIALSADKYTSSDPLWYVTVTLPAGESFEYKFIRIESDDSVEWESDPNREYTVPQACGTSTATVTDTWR
T5 sequence (P53341 whole entry): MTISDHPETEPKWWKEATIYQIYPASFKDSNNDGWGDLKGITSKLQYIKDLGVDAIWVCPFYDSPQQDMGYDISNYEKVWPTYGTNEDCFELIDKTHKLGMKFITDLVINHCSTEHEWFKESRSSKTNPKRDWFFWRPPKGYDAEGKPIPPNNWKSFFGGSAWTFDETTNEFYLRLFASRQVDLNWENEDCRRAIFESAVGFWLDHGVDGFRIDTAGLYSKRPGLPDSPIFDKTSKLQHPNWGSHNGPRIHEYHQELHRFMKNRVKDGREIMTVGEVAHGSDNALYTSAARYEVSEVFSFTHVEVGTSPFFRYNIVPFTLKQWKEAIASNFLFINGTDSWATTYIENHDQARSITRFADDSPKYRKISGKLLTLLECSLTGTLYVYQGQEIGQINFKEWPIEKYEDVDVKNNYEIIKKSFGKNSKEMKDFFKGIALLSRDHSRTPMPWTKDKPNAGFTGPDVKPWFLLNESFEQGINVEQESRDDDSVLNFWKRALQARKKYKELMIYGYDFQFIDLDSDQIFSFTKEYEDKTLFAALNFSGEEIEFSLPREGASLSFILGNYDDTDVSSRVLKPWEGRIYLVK

## OC[C@H]1NC[C@H](O)[C@@H](O)[C@@H]1O [DNJ, 1 deoxynojirmycin]
[1]
  N-acetyl-β-D-gluc (Jack bean), typical DNJ inhibitory activity: NI
Glycogen phosphorylase
  glycogen phosphorylase inhibition: do not inhibit
[2]
  α-D-glu Bacillus, typical DNJ inhibitory activity: potent
[3]
  β-D-man Cellulomonas, typical DNJ inhibitory activity: NI
α-D-glucosidase (rice)
  α-D-glu rice, typical DNJ inhibitory activity: potent
[4]
  α-D-man Jack bean, typical DNJ inhibitory activity: weak
[5]
  β-D-gal bovine, typical DNJ inhibitory activity: NI
[6]
  β-glucuronidase (bovine liver), typical DNJ inhibitory activity: NI
α-D-glucosidase (Yeast)
  α-D-glu Yeast, typical DNJ inhibitory activity: weak
[7]
  amyloglucosidase (A. niger), typical DNJ inhibitory activity: NI
β-D-glucosidase (almond)
  β-D-glu almond, typical DNJ inhibitory activity: moderate
[8]
  N-acetyl-β-D-gluc (Bovine kidney, typical DNJ inhibitory activity): NI
